Measured values: US10980765B2, “Isothiocyanatostilbenes as a novel method and product for treating cancer” (BOARD OF SUPERVISORS OF LOUISIANA STATE UNIVERSITY AND …, priority 2015, dated 2021)

What was measured:
[1] = Xenograft study, tolerability (body weight, clinical observation); format: in vivo, Athymic nude mice
Description: Data are shown as average+S.E.M., *p<0.05.
Xenograft studies: All animal experiments were approved by the Institutional Animal Care and Use Committee, University of Louisiana at Monroe, and were handled in strict accordance with good animal practice as defined by the NIH guidelines. Athymic nude mice (Foxn1^nu/Foxn1^+, 4-5 weeks, female) were purchased from Harlan (Indianapolis, Ind.). The mice had free access to standard pellet food and water. The animals were acclimated to animal house facility conditions at a temperature of 18-25° C., with a relative humidity of 55 to 65% and a 12 h light/dark cycle, for one week prior to the experiments. MDA-MB-231/GFP human breast cancer cells were cultured and resuspended in serum-free DMEM medium (20 μl). After anesthesia, cell suspensions (1×10^6 cells/20 μl) were inoculated subcutaneously into the second mammary gland fat pad just beneath the nipple of each animal to generate orthotopic breast tumors. […] The mice were monitored by measuring tumor volume, body weight, and clinical observation. Tumor volume (V) was calculated by V=L/2×W^2, where L was the length and W was the width of tumors. The results are presented as average ±S.E.M. Differences among various treatment groups were determined by the analysis of variance (ANOVA) followed by Dunnett's test using PASW statistics version 18. […]

[2] = test system: matrix metalloproteinase release; settings: cited from earlier work
[3] = test system: protein translocation across the ER membrane; settings: cited from earlier work
Akt = test: Western blot of downstream Akt (phospho-Akt) in HGF-treated DU145 cells; format: cell-based; settings: ˜8 μM compound, 33 ng/ml HGF 20 min, serum-free
Method: Western blot analysis: Cells were grown to ˜70% confluency prior to treatment. Cells were serum-starved in serum-free media for 30 minutes prior to treatment in complete media or serum-free media for the indicated times. Cell lysates were collected in Laemmli (125 mM Tris, 4% SDS, 0.01% bromophenol blue, 30% sucrose) containing 0.5% β-mercaptoethanol and boiled ˜8 minutes. Primary antibodies include: phospho-c-Met (Y1234/1235), phospho-Akt (S473), pEGFR […], pIGF-IRβ (Y1135/1136) (Cell Signaling Technology; Beverly, Mass.); α-actin (Sigma-Aldrich), c-Met (C-28) (Life Technologies). Secondary antibodies include: horseradish peroxidase-conjugated anti-rabbit and anti-mouse (GE Healthcare; Pittsburgh, Pa.). ECL 2 was used for chemiluminescent detection (Thermo Scientific; Rockford, Ill.). Densitometry was calculated using ImageJ (NIH).

[4] = test system: interaction of human immunodeficiency virus type-1 (HIV-1) with CD4 T-cell receptors; settings: cited from earlier work
DU145 cells [5] = test: Wound healing; format: cell-based
Method: (§1) Cells were fixed and stained for actin. Representative images are shown. […] Data are shown as mean±S.E.M.; n=3.
For invasion (FIGS. 4C and 4D), wounded cells were overlaid with Matrigel diluted 1:5 in serum-free media; n=3.
Wound healing and invasion: DU145 cells were grown to ˜100% confluency prior to wounding with the IncuCyte™ WoundMaker™ (Essen Bioscience; Ann Arbor, Mich.) and washed once with complete media. For invasion, cells were covered with Matrigel diluted 1:5 in serum-free RPMI following wounding. […] Images were taken every 4 hours with the IncuCyte™ ZOOM imaging system (Essen Bioscience). Quadruplicate replicates were used in each experiment. Data are presented as percent wound density ±standard error of the mean (S.E.M.).

succinic dehydrogenase = settings: cited from earlier work
DU145 spheroids = test: 3D spheroid proliferation; format: cell-based; settings: 33 ng/mL HGF, Matrigel, 72 hours
Method: Data are shown as the percent change in growth from T=0 to T=72 hours. For each of the six independent variables in each bar graph, a representative image at the 72 hour time point is shown. The six corresponding images below each respective bar graph
3D spheroid proliferation: Prior to seeding, cells were incubated with 2.5 ng/μl CellTracker Red (Life Technologies) in complete DMEM lacking Phenol Red for 5 minutes at room temperature then centrifuged at 1000 RPM for 5 minutes. […] The mixture of cells, treatments, and Matrigel in complete media was seeded at 2000 cells/well in a 96 well plate. The plate was centrifuged at 1000 RPM for 3 minutes to collect the cells into the bottom of the plate. Spheroid growth was imaged for up to 80 hours and analyzed for average red object area using the IncuCyte™ ZOOM software. Data are shown as percent change in spheroid growth between TO and […] with HGF normalized to 100% change in growth. Images were captured by the IncuCyte™ ZOOM imaging system and representative 10× images are shown.

DU145 cells [6] = test: Scattering assay; format: cell-based; settings: 4 μM DIDS or 25 μM H2DIDS
Method: as §1
Cells were fixed and stained for actin. Representative images are shown.
Scattering assay: DU145 cells were grown to ˜50% confluency. […] Cells were fixed with 4% paraformaldehyde and stained with Oregon Green 488 phalloidin (Invitrogen; Carlsbad, Calif.). Images were acquired on an Eclipse TE300 inverted microscope (Nikon; Tokyo, Japan) with NIS Elements version 4.13.04 software. Presented images were taken using a 10× objective.

## O=S(=O)(O)c1cc(N=C=S)ccc1C=Cc1ccc(N=C=S)cc1S(=O)(=O)O [DIDS, 4,4′-Diisothiocyanatostilbene-2,2′-disulfonic acid]
[1]; 5 mg/kg intraperitoneally, ˜2 weeks, mice
  signs of toxicity: No obvious signs of toxicity
[1]; 5 mg/kg then 10 mg/kg i.p., 3×/week
  body weight compared to DMSO control: no change in body weight
[2]
  concentration inhibiting matrix metalloproteinase release: ≥ 400 µM
[3]
  concentration inhibiting protein translocation across the ER membrane: ≥ 400 µM
Akt
  reduction of downstream Akt: ~90%
[4]
  concentration preventing interaction of HIV-1 with CD4 T-cell receptors: low micromolar concentrations
DU145 cells [5]; 4 μM DIDS or 25 μM H2DIDS, 33 ng/ml HGF
  HGF-induced wound healing: significantly reduced
DU145 cells [5]; 4 μM DIDS or 25 μM H2DIDS, 100 ng/ml EGF
  EGF-mediated wound healing: minimal effects
DU145 cells [5]; indicated concentrations, 33 ng/mL HGF
  HGF-induced wound healing, dose response: reduce HGF-induced wound healing in a dose response manner
Succinic dehydrogenase
  concentration reducing activity of succinic dehydrogenase: low micromolar concentrations
DU145 spheroids
  lowest concentration with some inhibitory effects on HGF-induced spheroid growth: 40 nM
DU145 spheroids; 5 μM compound
  decrease of HGF-induced DU145 spheroid growth: ~60%
DU145 cells [6]; 33 ng/ml HGF overnight
  HGF-induced cell scattering: able to reduce HGF-induced
DU145 cells [6]; 100 ng/ml EGF overnight
  EGF-induced cell scattering: not EGF-induced
